Source: patent US20230059747A1, “A COOLING PREPARATION” (SYMRISE AG, priority 2019, published 2023)

Experiments:
rat eyes = conditions: cited from earlier work
[1] = tested on: panel of 5 experienced testers; experiment: Long lasting cooling sensation: panel evaluation of toothpaste compositions; format: in vivo, human; conditions: added to standard toothpaste
Procedure: Phenylalkennals and homovanillic acid esters were added alone and in combination to a standard toothpaste composition. A panel of 5 experienced testers evaluated the compositions with regard to initial cooling effect during brushing, directly after brushing and the long last effect after 5 and after 10 minutes. The evaluation was done according to a score card from 1=almost no cooling effect to 10=strong cooling sensation. Example 1 is according to the invention, examples C1 to C3 serve for comparison.

Compound | Pain sensation in rat eyes (assessment in words) (rat eyes) | Cooling sensation during and directly after brushing (in words) [1] | Long lasting cooling sensation after 5 and after 10 minutes (in words) [1]
CCCOC(=O)Cc1ccc(O)c(OC)c1 [II-17, Propyl-2-(4-hydroxy-3-methoxyphenyl) acetate] | active | – | –
C/C=C(/C=O)c1ccccc1 [Phenylbutenal, 2-Phenyl-but-2-enal] | – | improves the cooling sensation during and directly after brushing | does not have any long lasting effect
CCCCCCCCCCCCOC(=O)Cc1ccc(O)c(OC)c1 [dodecyl ester of homovanillic acid] | active | – | –
COC(=O)Cc1ccc(O)c(OC)c1 [methyl ester of homovanillic acid] | active | – | –
CCCCCCCCCOC(=O)Cc1ccc(O)c(OC)c1 [nonyl ester of homovanillic acid] | active | – | –
CCCCCCCCOC(=O)Cc1ccc(O)c(OC)c1 [octyl ester of homovanillic acid] | active | – | –
